Assay results from ChEMBL document CHEMBL3997762 (Medchemcomm, 2016).
Active and inactive are the calls of the source. The rule behind the calls is not given here.

Columns and labels:
[1] = Drug uptake in human SGC7901 cells at 3 uM after 4 hrs by flow cytometry relative to control; type: ADME, cell-based; details: sgc-7901, 4 h
[2] = Drug uptake in human SGC7901 cells at 3 uM after 24 hrs by flow cytometry relative to control; type: ADME, cell-based; details: sgc-7901, 24 h
[3] = system: SGC-7901; assay: Cytotoxicity against human SGC7901 cells assessed as effect on cell viability at 10 uM after 48 hrs by MTT assay relative to control; type: functional
[4] = system: GES1; assay: Cytotoxicity against human GES-1 cells assessed as effect on cell viability at 10 uM after 48 hrs by MTT assay relative to control; type: cell-based; details: ges1, 48 h
[5] = Stability of the compound in PBS in presence of FBS by fluorescence assay; type: physicochemical; details: cattle, buffer
[6] = Drug localization in mitochondria of human SGC7901 cells at 5 uM after 24 hrs by MitoTracker Red CM-H2-XRos/Hoechst 33342 dye based confocal fluorescence microscopic analysis; type: ADME
[7] = Drug uptake in human SGC7901 cells at 5 uM after 4 hrs by flow cytometry relative to control; type: ADME, cell-based; details: sgc-7901, 4 h
[8] = Drug uptake in human SGC7901 cells at 5 uM after 24 hrs by flow cytometry relative to control; type: ADME, cell-based; details: sgc-7901, 24 h
[9] = Drug uptake in human SGC7901 cells at 5 uM after 48 hrs by flow cytometry relative to control; type: ADME, cell-based; details: sgc-7901, 48 h
[10] = system: SGC-7901; assay: Cytotoxicity against human SGC7901 cells assessed as decrease in cell viability pretreated for 4 hrs followed by DTT addition measured 48 to 72 hrs post dose by MTT assay; type: functional, cell-based
[11] = system: SGC-7901; assay: Cytotoxicity against human SGC7901 cells assessed as effect on cell viability at 50 uM after 48 hrs by MTT assay relative to control; type: functional
[12] = system: GES1; assay: Cytotoxicity against human GES-1 cells assessed as effect on cell viability at 50 uM after 48 hrs by MTT assay relative to control; type: cell-based; details: ges1, 48 h
[13] = Stability of the compound in DMEM in presence of FBS up to 96 hrs by fluorescence assay
[14] = system: SGC-7901; assay: Induction of apoptosis in human SGC7901 cells after 48 hrs by Annexin V/[…] staining-based flow cytometric method; type: functional, cell-based
[15] = Stability of the compound in DMEM in presence of FBS by fluorescence assay
[16] = Drug localization in mitochondria of human MCF7 cells at 5 uM after 24 hrs by MitoTracker Red CM-H2-XRos/Hoechst 33342 dye based confocal fluorescence microscopic analysis; type: ADME
[17] = system: SGC-7901; assay: Induction of apoptosis in human SGC7901 cells assessed as decrease in viable cells after 48 hrs by Annexin V/[…] staining-based flow cytometric method; type: functional, cell-based
[18] = system: SGC-7901; assay: Induction of apoptosis in human SGC7901 cells assessed as decrease in nonapoptotic cells after 48 hrs by Annexin V/[…] staining-based flow cytometric method; type: functional, cell-based
[19] = system: SGC-7901; assay: Cell cycle arrest in human SGC7901 cells assessed as accumulation at G1 phase at <20 uM after 24 hrs by propidium iodide staining based flow cytometry; type: functional
[20] = system: SGC-7901; assay: Cell cycle arrest in human SGC7901 cells assessed as accumulation at S phase at >20 uM after 24 hrs by propidium iodide staining based flow cytometry; type: functional
[21] = system: SGC-7901; assay: Induction of ROS production in human SGC7901 cells at 5 to 20 uM after 48 hrs by DHE dye based flow cytometry; type: functional, cell-based
[22] = system: GES1; assay: Cytotoxicity against human GES-1 cells assessed as effect on cell viability up to 100 uM after 48 to 72 hrs by MTT assay; type: cell-based
[23] = system: SGC-7901; assay: Cell cycle arrest in human SGC7901 cells assessed as decrease in G1 phase at >20 uM after 24 hrs by propidium iodide staining based flow cytometry; type: functional
[24] = system: SGC-7901; assay: Induction of ROS production in human SGC7901 cells at 5 to 10 uM after 48 hrs by MitoTracker Red CM-H2-XRos dye based flow cytometry; type: functional, cell-based
[25] = Drug uptake in human SGC7901 cells at 5 uM after 24 hrs by MitoTracker Red CM-H2-XRos/Hoechst 33342 dye based confocal fluorescence microscopic analysis; type: ADME, cell-based; details: sgc-7901, 24 h

Structure (SMILES): C[n+]1ccc(/C=C/c2c[nH]c3ccccc23)cc1.[I-]
- Drug uptake [1]: 95.4%
- Drug uptake [2]: 96.9%

Structure (SMILES): O=c1[nH]c(=O)n(CCSSCC[n+]2ccc(/C=C/c3c[nH]c4ccccc34)cc2)cc1F.[Br-]
- fold change (FC) [3]: 1.108
- fold change (FC) [4]: 0.978
- Stability [5]: 72 h
- Drug uptake [6]: Active
- Drug uptake [7]: 93.2%
- Drug uptake [8]: 98.8%
- Drug uptake [9]: 99.6%
- Activity [10]: Active
- fold change (FC) [11]: 1.021
- fold change (FC) [12]: 0.895
- Stability [13]: Stable

Structure (SMILES): O=C(Cn1cc(F)c(=O)[nH]c1=O)OCC[n+]1ccc(/C=C/c2c[nH]c3ccccc23)cc1.[Br-]
- Activity [14]: Dose-dependent effect
- fold change (FC) [3]: 0.707
- fold change (FC) [4]: 0.822
- Stability [5]: 72 h
- Stability [15]: 48 h
- Drug uptake [16]: Active
- Drug uptake [7]: 96.5%
- Drug uptake [8]: 96.6%
- Drug uptake [9]: 95.8%
- Activity [17]: Dose-dependent effect
- Activity [18]: Dose-dependent effect
- Activity [19]: Active
- Activity [20]: Active
- Activity [21]: Active
- fold change (FC) [11]: 0.597
- fold change (FC) [12]: 0.561
- Activity [22]: Non-Toxic
- Activity [23]: Active
- Activity [24]: Active

Structure (SMILES): O=c1[nH]cc(F)c(=O)[nH]1 [FLUOROURACIL]
- fold change (FC) [3]: 0.986
- fold change (FC) [4]: 0.733
- fold change (FC) [11]: 0.6
- fold change (FC) [12]: 0.53
- Activity [22]: Toxic

Structure (SMILES): O=c1[nH]c(=O)n(CCC[n+]2ccc(/C=C/c3c[nH]c4ccccc34)cc2)cc1F.[Br-]
- Stability [5]: 72 h
- Stability [15]: 48 h
- Drug uptake [25]: Not Active
- Drug uptake [7]: 78%
- Drug uptake [8]: 80.5%
- Drug uptake [9]: 62.6%
- fold change (FC) [11]: 1.019
- fold change (FC) [12]: 1.072

Structure (SMILES): O=C(Cn1cc(F)c(=O)[nH]c1=O)NCC[n+]1ccc(/C=C/c2c[nH]c3ccccc23)cc1.[Br-]
- fold change (FC) [3]: 0.977
- fold change (FC) [4]: 1.055
- Stability [5]: 72 h
- Stability [15]: 48 h
- Drug uptake [25]: Not Active
- Drug uptake [7]: 0.8%
- Drug uptake [8]: 1.4%
- Drug uptake [9]: 1.6%
- fold change (FC) [11]: 0.888
- fold change (FC) [12]: 1.069
